Test results: ChEMBL document CHEMBL1149234, “Exploration of the P1 SAR of aldehyde cathepsin K inhibitors” (Bioorg Med Chem Lett, 2004)

target: T1, Cathepsin K (Homo sapiens, UniProt P43235); test: Inhibitory activity against recombinant human cathepsin K
T1 sequence (P43235 whole entry): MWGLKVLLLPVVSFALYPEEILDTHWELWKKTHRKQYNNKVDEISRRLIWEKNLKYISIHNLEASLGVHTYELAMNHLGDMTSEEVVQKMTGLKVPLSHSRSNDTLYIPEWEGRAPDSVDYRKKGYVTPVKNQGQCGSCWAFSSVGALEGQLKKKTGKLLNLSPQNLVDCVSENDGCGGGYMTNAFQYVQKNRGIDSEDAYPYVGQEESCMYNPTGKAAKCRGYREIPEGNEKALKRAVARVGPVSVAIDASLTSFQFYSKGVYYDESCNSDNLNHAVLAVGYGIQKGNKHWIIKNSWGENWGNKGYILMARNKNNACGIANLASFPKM

Structure (SMILES)	IC50 [nM]
CC(C)(C)OC(=O)N[C@H](C=O)c1ccccc1	51
CC[C@@H](C=O)NC(=O)OC(C)(C)C	58
CCSC[C@@H](C=O)NC(=O)OC(C)(C)C	83
CC(C)(C)OC(=O)N[C@H](C=O)CC1CCCCC1	36
C/C=C\C[C@@H](C=O)NC(=O)OC(C)(C)C	41
CN(CCC[C@@H](C=O)NC(=O)OC(C)(C)C)C(=O)C(F)(F)F	29
CCCCCC[C@@H](C=O)NC(=O)OC(C)(C)C	23
CN(CCCC[C@@H](C=O)NC(=O)OC(C)(C)C)C(=O)C(F)(F)F	50
CSCC[C@@H](C=O)NC(=O)OC(C)(C)C	78
COCC[C@@H](C=O)NC(=O)OC(C)(C)C	680
CC(C)(C)C[C@@H](C=O)NC(=O)OC(C)(C)C	250
CCC[C@@H](C=O)NC(=O)OC(C)(C)C	38
CC(C)(C)OC(=O)N[C@H](C=O)Cc1ccccc1	110
CC(C)(C)OC(=O)N[C@H](C=O)CCCC1CCCCC1	16
CN(CC[C@@H](C=O)NC(=O)OC(C)(C)C)C(=O)C(F)(F)F	98
CCC(C)[C@H](C=O)NC(=O)OC(C)(C)C (stereo partly drawn)	130
C=C(C)C[C@@H](C=O)NC(=O)OC(C)(C)C	79
CC(C)C[C@@H](C=O)NC(=O)OC(C)(C)C	31
C/C=C/C[C@@H](C=O)NC(=O)OC(C)(C)C	150
CC(C)(C)OC(=O)N[C@H](C=O)CCCCNC(=O)C(F)(F)F	41

The remaining lines, values ahead:

IC50 [nM]	Structure (SMILES)
110	CCCCC[C@@H](C=O)NC(=O)OC(C)(C)C
370	COC(=O)NC[C@@H](C=O)NC(=O)OC(C)(C)C
30	CC(C)(C)OC(=O)N[C@H](C=O)CCc1ccccc1
52000	CC(C)(C)OC(=O)N[C@H](C=O)C(C)(C)C
0.11	CCCC[C@@H](C=O)NC(=O)[C@H](CC(C)C)NC(=O)OCc1ccccc1 [CALPEPTIN]
250	CCC(C)[C@@H](C=O)NC(=O)OC(C)(C)C (stereo partly drawn)
15	CC(C)(C)OC(=O)N[C@H](C=O)CCCc1ccccc1
26	CC(C)(C)OC(=O)N[C@H](C=O)CCC1CCCCC1
15	COC(=O)NCCCC[C@@H](C=O)NC(=O)OC(C)(C)C
51	CCCC[C@@H](C=O)NC(=O)OC(C)(C)C
160	CC(C)[C@@H](C=O)NC(=O)OC(C)(C)C
410	CC#CC[C@@H](C=O)NC(=O)OC(C)(C)C
660	CCOC[C@@H](C=O)NC(=O)OC(C)(C)C
87	CC(C)(C)OC(=O)N[C@H](C=O)CCCC(F)(F)F
40	CC(C)(C)OC(=O)N[C@H](C=O)CSCc1ccccc1
200	C[C@@H](C=O)NC(=O)OC(C)(C)C
5800	CC(C)(C)OC(=O)NCC=O
38	CC(C)(C)OC(=O)N[C@H](C=O)COCc1ccccc1
